The text below walks through data of publication PMC9866314 (Viruses, 2022).

Data set [1] has as its system FMDV serotype A (NP05). In words: microbe, parasite or virus in culture. The data set is classed as cell-based. The settings on record: Foot-and-mouth disease virus; for EC50: BHK-21, read-out: Antiviral Activity EC50; for EC90: BHK-21, read-out: Antiviral Activity EC90.
The nature of data set [2]: in vitro. The settings on record: hamster.
Data set [3] has as its system RD114 glycoprotein (RD114pp) of endogenous feline retrovirus. The note with it: read-out: IC50 against RD114pp; cited from earlier work.

Consider `CO[C@@H]1C[C@@H](C[C@H]2CC[C@H](C)[C@H]([C@@H](C)C(=O)O)O2)O[C@]2(O[C@](C)([C@H]3CC[C@@](C)([C@@H]4O[C@@H]([C@H]5O[C@@](O)(CO)[C@H](C)C[C@@H]5C)C[C@@H]4C)O3)C[C@H]2C)[C@@H]1C` [NSC292567, Pandavir/Nigericin], for which, in data set [1], the concentration for a half-maximal effect (EC50) turned out to be 0.42 ± 0.08 µM and the EC90 was determined as 3.85 ± 0.34 µM. In addition, in data set [2], the CC50 was found to be 49.9 ± 1.7 µM.

As for `CC1=CC(C)(C)Nc2ccc(Cc3ccc4c(c3)C(C)=CC(C)(C)N4)cc21` [NSC217697, 6,6′-methylene bis(2,2,4-trimethyl-1,2-dihydroquinoline)], in data set [1], the EC50 came out at 0.78 ± 0.1 µM and the concentration for an effect of 90% (EC90) is 9.52 ± 0.18 µM. For the same molecule, the CC50 in data set [2] is greater than 100 µM.

Turning to `NC(=O)c1ncn([C@@H]2O[C@H](CO)[C@@H](O)[C@H]2O)n1` [Ribavirin, 1-β-d-ribofuranosyl-1,2,4-triazole-3-carboxamide, reference compound], in data set [1], the half-maximal effective concentration (EC50) is 42.89 ± 0.42 µM and the EC90 turned out to be 393.6 ± 2.56 µM. In data set [2], this molecule gave a CC50 greater than 100 µM.

For `O=C1CCCc2cc3c(cc21)CC1(C3)Cc2cc3c(cc2C1)C(=O)CCC3` [NSC670283, 2,2′-spirobi [3,6,7,8-tetrahydro-1H-cyclopenta[g]naphthalene]-5,5′-dione], in data set [1], the 50% effective concentration (EC50) was found to be 3.38 ± 1.02 µM and the EC90 stood at 30.45 ± 0.25 µM. In data set [3], the IC50 is 3 µM. The molecule further returned a CC50 in data set [2] greater than 100 µM.

`CCOC(=O)/C=C/[C@H](C[C@@H]1CCNC1=O)NC(=O)[C@@H](CC(=O)[C@@H](NC(=O)c1cc(C)on1)C(C)C)Cc1ccc(F)cc1` [Rupintrivir, reference compound]: in data set [1], the 50% effective concentration (EC50) is 2.02 ± 0.3 µM and the EC90 came to 12.1 ± 1.6 µM. The molecule further returned a CC50 in data set [2] greater than 100 µM.

Usually EC50 stands for the concentration at which the effect is half-maximal. In general, EC90 refers to the concentration needed for an effect of 90%. A word on the IC50: it is the midpoint of a concentration-inhibition curve.
